Assay: Quantity of drug attached to the stent by UV absorbance and calibration curves
Type: physicochemical
Conditions: FIG. 7
Experimental: In order to measure the quantity of α-lipoic acid and ReoPro attached to the stent, standard solutions with four concentrations were prepared for each drug. Absorbance was measured using a UV spectrometer (Shimadzu 1601, Japan) at 330 nm for α-lipoic acid and at 278 nm for ReoPro. Thus, calibration curves were drawn for α-lipoic acid and ReoPro. Then, in order to measure the quantity of the drugs attached to the stent, each 500 μL of the reaction solution was taken before and after the reaction, which were diluted by mixing with triple distilled water (2.5 mL) and subjected to absorbance measurement at 278 nm and 330 nm, respectively. The measurement result was compared with the calibration curves to determine the quantity of α-lipoic acid and ReoPro attached to the stent.
After binding a drug on the surface of the stent that had been modified with hydroxyl groups, the amount of the bound drug was calculated using the calibration curves. […] Therefore, it can be seen that a 10 to 50 W is ideal for modification of the titanium dioxide thin film using water.

Compound: O=C(O)CCCCC1CCSS1 (stereo not drawn) [α-lipoic acid]
- quantity of attached α-lipoic acid (discharge power applied for the surface modification 20 W): 250 µg
- quantity of attached α-lipoic acid (surface modification at 60 W): decreased remarkably
- quantity of attached α-lipoic acid (thin films modified at 10, 30, 40 and 50 W): about 150 μg
